Where two headings read alike, the source gives them in different places. Starred links: 1 amine or outer side, 2 acyl side, 3 side chain; linkers in the order of their positions; H or OH if unused. Positions of bridges follow the written chain, without caps; N, C: chain ends. Non-standard residues stand in square brackets, D forms with d. Residues, ends and D or L forms follow the SMILES beside them. *: point of attachment. Phe(4-(4-pyridyl)) = N[C@@H](Cc1ccc(-c2ccncc2)cc1)C(=O)O; Phe(3-OCH2COOH) = N[C@@H](Cc1cccc(OCC(=O)O)c1)C(=O)O; Phe(4-COOH) = N[C@@H](Cc1ccc(C(=O)O)cc1)C(=O)O; Trp(7-aza) = N[C@@H](Cc1c[nH]c2ncccc12)C(=O)O; Piperazinyl(4-CH2COOH) = O=C(O)CN1CCN(*)CC1; Bip = N[C@@H](Cc1ccc(-c2ccccc2)cc1)C(=O)O; Gly(decyl) = CCCCCCCCCC[C@H](N)C(=O)O; Gly(N(CH2)3COOH) = O=C(O)CCCNCC(=O)O; X1 = CCCCCCC[C@H](N[*:1])C(=O)[*:2]; NMeCha = CN[C@@H](CC1CCCCC1)C(=O)O; NMeF = CN[C@@H](Cc1ccccc1)C(=O)O; NMeE = CN[C@@H](CCC(=O)O)C(=O)O; Cha = N[C@@H](CC1CCCCC1)C(=O)O; Carboxymethyl = O=C(O)C*; NMeA = CN[C@@H](C)C(=O)O; Bn = c1ccc(C*)cc1; Sar = CNCC(=O)O
Legend:
Assay type in all cases: cell-based
[1] = target: T1, Myostatin (Homo sapiens, UniProt O14793); assay: Reporter gene assay for myostatin signaling in HepG2 cell line, Evaluation Procedure (1), myostatin inhibition; settings: read-out: IC50 (Luciferase) Myostatin HepG2
T1 construct: active myostatin (also called mature myostatin) is a homodimer consisting of two C-terminal growth factor domains; purchased R&D systems 788-G8/CF
T1 sequence (O14793 267-375): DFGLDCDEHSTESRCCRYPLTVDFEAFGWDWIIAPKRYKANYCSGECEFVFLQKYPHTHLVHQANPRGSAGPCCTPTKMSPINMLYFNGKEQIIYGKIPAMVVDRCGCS
Outline: (§1)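 IC50 derived from One-Glo luciferase luminescence after 20–24 h at 37 °C. Peptides titrated 4-fold at 0.006–100 nmol/L against myostatin or 0.12–2000 nmol/L against GDF-11 in HepG2 cells carrying a transfected CAGA12-luciferase reporter, kept in 0.1% BSA EMEM.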

[2] = test system: Myostatin; assay: as above; settings: GDF-11 IC50 versus Myostatin IC50
Outline: as §1

[3] = target: T2, GDF-11 (Homo sapiens, UniProt O95390); assay: Reporter gene assay for myostatin signaling in HepG2 cell line, Evaluation Procedure (1), GDF-11 inhibition; settings: read-out: IC50 (Luciferase) GDF-11 HepG2
T2 construct: purchased R&D systems 1958-GD-G8/CF
T2 sequence (O95390 299-407): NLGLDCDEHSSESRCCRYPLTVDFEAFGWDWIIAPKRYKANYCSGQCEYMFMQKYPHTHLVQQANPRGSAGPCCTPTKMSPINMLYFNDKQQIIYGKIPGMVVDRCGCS
Outline: as §1

[4] = target: T1, Myostatin; assay: HepG2 reporter gene assay, Evaluation Procedure (2): 2-concentrations assay, myostatin inhibition; settings: Myostatin 10 ng/mL, HepG2; for inhibition at 0.03 µM: peptide 30nM, read-out: Myostatin Inhibition 30nM; for inhibition at 0.1 µM: peptide 100nM, read-out: Myostatin Inhibition 100nM
Outline: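 Myostatin inhibition was measured in a luciferase reporter assay using HepG2 cells transfected with a pGL3 vector containing 12 CAGA repeats upstream of luciferase. After 20 to 24 hours with 10 ng/mL myostatin, cells received One-Glo:PBS (1:1) at 100 µL/well, were shaken for 5 min, and 20 µL/well was moved to 384-well plates and read on an Envision 2104.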

[5] = target: T2, GDF-11; assay: HepG2 reporter gene assay, Evaluation Procedure (2): 2-concentrations assay, GDF-11 inhibition; settings: GDF-11 10 ng/mL
Outline: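 HepG2 cells carrying the transfected pGL3(CAGA)12-luc reporter, a pGL3 vector with luciferase placed downstream of 12 CAGA repeats, were stimulated with GDF-11 at a final 10 ng/mL together with test peptide. Blank wells received no GDF-11 and no peptide. Plates were incubated 20 to 24 hours at 37°C with 5% CO2. Luminescence from One-Glo substrate was read to calculate percent inhibition.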

Row | IC50 ([1]; Method B: Myostatin 1 ng/mL) | IC50 ([3]; Method B: GDF-11 1 ng/mL) | inhibition at 0.03 µM [4] | inhibition at 0.1 µM [4] | inhibition at 0.03 µM ([5]; HepG2, peptide 30nM, read-out: GDF11 Inhibition 30nM) | inhibition at 0.1 µM ([5]; HepG2, peptide 100nM, read-out: GDF11 Inhibition 100nM) | IC50 ([1]; Method A: Myostatin 10 ng/mL) | IC50 ([3]; Method A: GDF-11 10 ng/mL) | SMILES | Selectivity ([2]; Method B) | Selectivity ([2]; Method A)
1 | 0.1 nM | 5.3 nM | 91% | 98% |  |  |  |  | CCCCCCCCCC[C@@H]1NC(=O)[C@H](Cc2ccccc2)N(C)C(=O)[C@H](CCCNC(=N)N)NC(=O)[C@H](Cc2ccc(C(=O)O)cc2)NC(=O)[C@H](Cc2cccc(OCC(=O)O)c2)NC(=O)CN(C)C(=O)[C@H]([C@@H](C)CC)NC(=O)[C@H](Cc2ccccc2)N(C)C(=O)[C@H](Cc2ccc(O)cc2)NC(=O)[C@H](Cc2c[nH]c3ccccc23)NC(=O)[C@H](C)NC(=O)[C@H](C)NC(=O)CSC[C@H](C(=O)N2CCN(CC(=O)O)CC2)NC(=O)[C@H](Cc2ccccc2)N(C)C(=O)[C@H](CCC(=O)O)N(C)C1=O [Myostatin_99_v265] ({CH2CO}-AAWY[NMeF]I[Sar][Phe(3-OCH2COOH)][Phe(4-COOH)]R[NMeF][Gly(decyl)][NMeE][NMeF][dC]-{Piperazinyl(4-CH2COOH)}; thioether N-15) | 55 | 
2 | 0.16 nM | 29 nM | 26% | 72% |  |  |  |  | CCCCCCCCCC[C@@H]1NC(=O)[C@H](CC2CCCCC2)NC(=O)[C@H](CCCNC(=N)N)NC(=O)[C@H](Cc2ccc(C(=O)O)cc2)NC(=O)[C@H](Cc2cccc(OCC(=O)O)c2)NC(=O)CN(C)C(=O)[C@H]([C@@H](C)CC)NC(=O)[C@H](Cc2ccccc2)N(C)C(=O)[C@H](Cc2ccc(O)cc2)NC(=O)[C@H](Cc2c[nH]c3ccccc23)NC(=O)[C@H](C)NC(=O)[C@H](C)NC(=O)CSC[C@H](C(=O)N2CCN(CC(=O)O)CC2)NC(=O)[C@H](Cc2ccccc2)N(C)C(=O)[C@H](CCC(=O)O)N(C)C1=O [Myostatin_99_v261] ({CH2CO}-AAWY[NMeF]I[Sar][Phe(3-OCH2COOH)][Phe(4-COOH)]R[Cha][Gly(decyl)][NMeE][NMeF][dC]-{Piperazinyl(4-CH2COOH)}; thioether N-15) | 181 | 
3 | 0.11 nM | 6.8 nM | 100% | 100% | 12% | 55% |  |  | CCCCCCC[C@@H]1NC(=O)[C@H](Cc2ccccc2)N(C)C(=O)[C@H](CCCNC(=N)N)NC(=O)[C@H](Cc2ccc(C(=O)O)cc2)NC(=O)[C@H](Cc2cccc(OCC(=O)O)c2)NC(=O)CN(C)C(=O)[C@H]([C@@H](C)CC)NC(=O)[C@H](Cc2ccccc2)N(C)C(=O)[C@H](Cc2ccc(OCc3ccccc3)cc2)NC(=O)[C@H](Cc2c[nH]c3ccccc23)NC(=O)[C@H](C)NC(=O)[C@H](C)NC(=O)CSC[C@H](C(=O)N2CCN(CC(=O)O)CC2)NC(=O)[C@H](Cc2ccccc2)N(C)C(=O)[C@H](C)N(C)C1=O [Myostatin_99_v298] ({CH2CO}-AAWY(Bn)[NMeF]I[Sar][Phe(3-OCH2COOH)][Phe(4-COOH)]R[NMeF][X1][NMeA][NMeF][dC]-{Piperazinyl(4-CH2COOH)}; thioether N-15) | 62 | 
4 |  |  |  |  |  |  | 1.6 nM | 191 nM | CCCCCCC[C@@H]1NC(=O)[C@H](Cc2ccccc2)N(C)C(=O)[C@H](CCCNC(=N)N)NC(=O)[C@H](Cc2ccc(C(=O)O)cc2)NC(=O)[C@H](Cc2cccc(OCC(=O)O)c2)NC(=O)CN(C)C(=O)[C@H]([C@@H](C)CC)NC(=O)[C@H](CC2CCCCC2)N(C)C(=O)[C@H](Cc2ccc(O)cc2)NC(=O)[C@H](Cc2c[nH]c3ccccc23)NC(=O)[C@@H](CCC(=O)O)NC(=O)[C@H](C)NC(=O)CSC[C@H](C(=O)N2CCN(CC(=O)O)CC2)NC(=O)[C@H](Cc2ccccc2)N(C)C(=O)[C@H](C)N(C)C1=O [Myostatin_99_v255] ({CH2CO}-A[dE]WY[NMeCha]I[Sar][Phe(3-OCH2COOH)][Phe(4-COOH)]R[NMeF][X1][NMeA][NMeF][dC]-{Piperazinyl(4-CH2COOH)}; thioether N-15) |  | 119
5 |  |  |  |  |  |  | 3.2 nM | 350 nM | CCCCCCC[C@@H]1NC(=O)[C@H](Cc2ccccc2)N(C)C(=O)[C@H](CCCNC(=N)N)NC(=O)[C@H](Cc2ccc(C(=O)O)cc2)NC(=O)[C@H](Cc2cccc(OCC(=O)O)c2)NC(=O)CN(C)C(=O)[C@H]([C@@H](C)CC)NC(=O)[C@H](Cc2ccccc2)N(C)C(=O)[C@H](Cc2ccc(O)cc2)NC(=O)[C@H](Cc2c[nH]c3ncccc23)NC(=O)[C@H](CO)NC(=O)[C@H](C)NC(=O)CSC[C@H](C(=O)O)NC(=O)[C@H](Cc2ccccc2)N(C)C(=O)[C@H](C)N(C)C1=O [Myostatin_99_v160] ({CH2CO}-AS[Trp(7-aza)]Y[NMeF]I[Sar][Phe(3-OCH2COOH)][Phe(4-COOH)]R[NMeF][X1][NMeA][NMeF][dC]-OH; thioether N-15) |  | 109

Continued, molecule first:

Row | SMILES | IC50 ([1]; Method B: Myostatin 1 ng/mL) | IC50 ([3]; Method B: GDF-11 1 ng/mL) | inhibition at 0.03 µM [4] | inhibition at 0.1 µM [4] | inhibition at 0.03 µM ([5]; HepG2, peptide 30nM, read-out: GDF11 Inhibition 30nM) | inhibition at 0.1 µM ([5]; HepG2, peptide 100nM, read-out: GDF11 Inhibition 100nM) | IC50 ([1]; Method A: Myostatin 10 ng/mL) | IC50 ([3]; Method A: GDF-11 10 ng/mL) | Selectivity ([2]; Method B) | Selectivity ([2]; Method A)
6 | CC[C@H](C)[C@@H]1NC(=O)[C@H](Cc2ccccc2)N(C)C(=O)[C@H](Cc2ccc(O)cc2)NC(=O)[C@H](Cc2ccc(-c3ccccc3)cc2)NC(=O)[C@H](CO)NC(=O)CN(CCCC(=O)O)C(=O)CSC[C@H](C(=O)O)NC(=O)[C@H](Cc2ccccc2)N(C)C(=O)[C@H](C)N(C)C(=O)[C@H](CC(C)C)NC(=O)[C@H](Cc2ccccc2)N(C)C(=O)[C@H](CCCNC(=N)N)NC(=O)[C@H](Cc2ccc(C(=O)O)cc2)NC(=O)[C@H](Cc2ccc(O)cc2)NC(=O)CN(C)C1=O [Myostatin_99_v186] ({CH2CO}-[Gly(N(CH2)3COOH)]S[Bip]Y[NMeF]I[Sar]Y[Phe(4-COOH)]R[NMeF]L[NMeA][NMeF][dC]-OH; thioether N-15) |  |  |  |  |  |  | 43.2 nM | 935 nM |  | 22
7 | CC[C@H](C)[C@@H]1NC(=O)[C@H](Cc2ccccc2)N(C)C(=O)[C@H](Cc2ccc(O)cc2)NC(=O)[C@H](Cc2ccc(-c3ccccc3)cc2)NC(=O)[C@H](C)NC(=O)[C@H](C)NC(=O)CSC[C@H](C(=O)O)NC(=O)[C@H](Cc2ccccc2)N(C)C(=O)[C@H](C)N(C)C(=O)[C@H](CC(C)C)NC(=O)[C@H](Cc2ccccc2)N(C)C(=O)[C@H](CCCNC(=N)N)NC(=O)[C@H](Cc2ccc(C(=O)O)cc2)NC(=O)[C@H](Cc2ccc(O)cc2)NC(=O)CN(C)C1=O [Myostatin_99_v189] ({CH2CO}-AA[Bip]Y[NMeF]I[Sar]Y[Phe(4-COOH)]R[NMeF]L[NMeA][NMeF][dC]-OH; thioether N-15) |  |  |  |  |  |  | 6.9 nM | 234 nM |  | 34
8 | CC[C@H](C)[C@@H]1NC(=O)[C@H](Cc2ccccc2)N(C)C(=O)[C@H](Cc2ccc(O)cc2)NC(=O)[C@H](Cc2ccc(-c3ccncc3)cc2)NC(=O)CNC(=O)CN(CCCC(=O)O)C(=O)CSC[C@H](C(=O)O)NC(=O)[C@H](Cc2ccccc2)N(C)C(=O)[C@H](C)N(C)C(=O)[C@H](CC(C)C)NC(=O)[C@H](Cc2ccccc2)N(C)C(=O)[C@H](CCCNC(=N)N)NC(=O)[C@H](Cc2ccc(OCC(=O)O)cc2)NC(=O)[C@H](Cc2cccc(OCC(=O)O)c2)NC(=O)CN(C)C1=O [Myostatin_99_v92] ({CH2CO}-[Gly(N(CH2)3COOH)]G[Phe(4-(4-pyridyl))]Y[NMeF]I[Sar][Phe(3-OCH2COOH)]Y(Carboxymethyl)R[NMeF]L[NMeA][NMeF][dC]-OH; thioether N-15) |  |  |  |  |  |  | 78.1 nM | 3880 nM |  | 50
9 | CC[C@H](C)[C@@H]1NC(=O)[C@H](Cc2ccccc2)N(C)C(=O)[C@H](Cc2ccc(O)cc2)NC(=O)[C@H](Cc2c[nH]c3ccccc23)NC(=O)[C@H](CO)NC(=O)CN(CCCC(=O)O)C(=O)CSC[C@H](C(=O)O)NC(=O)[C@H](Cc2ccccc2)N(C)C(=O)[C@H](C)N(C)C(=O)[C@H](CC(C)C)NC(=O)[C@H](Cc2ccccc2)N(C)C(=O)[C@H](CCCNC(=N)N)NC(=O)[C@H](Cc2ccc(C(=O)O)cc2)NC(=O)[C@H](Cc2cccc(OCC(=O)O)c2)NC(=O)[C@H](C)N(C)C1=O [Myostatin_99_v158] ({CH2CO}-[Gly(N(CH2)3COOH)]SWY[NMeF]I[NMeA][Phe(3-OCH2COOH)][Phe(4-COOH)]R[NMeF]L[NMeA][NMeF][dC]-OH; thioether N-15) |  |  |  |  |  |  | 62 nM | 6460 nM |  | 104
